Assay results reported in PubChem BioAssay (NCI).
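Growth conditions: 96-well plates. Treatment: test compound, 48 hours, 5 concentrations. Analysis: linear interpolation between bracketing concentrations; unreached endpoints set to highest concentration. The concentration for 50% growth inhibition is given as GI50. TGI: total growth inhibition.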

Legend:
Test in all cases: NCI anticancer screen, dose series, 48 h
[1] = test system: 786-0 renal
[2] = test system: A549 NSCLC
[3] = test system: ACHN renal
[4] = test system: BT-549 breast
[5] = test system: CAKI-1 renal
[6] = test system: CCRF-CEM leukemia
[7] = test system: COLO 205 colon
[8] = test system: DU-145 prostate
[9] = test system: EKVX NSCLC
[10] = test system: HCT-116 colon
[11] = test system: HCT-15 colon
[12] = test system: HL-60(TB) leukemia
[13] = test system: HOP-62 NSCLC
[14] = test system: HOP-92 NSCLC
[15] = test system: HS 578T breast
[16] = test system: HT29 colon
[17] = test system: IGROV1 ovarian
[18] = test system: K-562 leukemia
[19] = test system: KM12 colon
[20] = test system: LOX IMVI melanoma
[21] = test system: M14 melanoma
[22] = test system: MALME-3M melanoma
[23] = test system: MCF7 breast
[24] = test system: MDA-MB-231 breast
[25] = test system: MDA-MB-435
[26] = test system: MOLT-4 leukemia
[27] = test system: NCI-H226 lung
[28] = test system: NCI-H23 lung
[29] = test system: NCI-H460 lung
[30] = test system: NCI/ADR-RES ovarian
[31] = test system: OVCAR-3 ovarian
[32] = test system: OVCAR-4 ovarian
[33] = test system: OVCAR-5 ovarian
[34] = test system: OVCAR-8 ovarian
[35] = test system: PC-3 prostate
[36] = test system: RPMI-8226 leukemia
[37] = test system: RXF 393 renal
[38] = test system: SF-268 CNS
[39] = test system: SF-295 CNS
[40] = test system: SK-MEL-2 melanoma
[41] = test system: SK-MEL-28 melanoma
[42] = test system: SK-MEL-5 melanoma
[43] = test system: SK-OV-3 ovarian
[44] = test system: SN12C renal
[45] = test system: SNB-19 CNS
[46] = test system: SNB-75 CNS
[47] = test system: SR leukemia
[48] = test system: SW-620 colon
[49] = test system: T-47D breast
[50] = test system: TK-10 renal
[51] = test system: U251 CNS
[52] = test system: UACC-257 melanoma
[53] = test system: UACC-62 melanoma
[54] = test system: UO-31 renal
[55] = test system: HCC-2998 colon
[56] = test system: NCI-H522 lung
[57] = test system: SF-539 CNS

COc1ccc(/C=C\[N+](=O)[O-])cc1OC
GI50 [1]: 1.9 µM
TGI [1]: 3.87 µM
GI50 [2]: 1.94 µM
TGI [2]: 4.97 µM
GI50 [3]: 3.68 µM
TGI [3]: 13.9 µM
GI50 [4]: 2.26 µM
TGI [4]: 5.21 µM
GI50 [5]: 1.8 µM
TGI [5]: 4.84 µM
GI50 [6]: 3.2 µM
TGI [6]: 22.7 µM
GI50 [7]: 5.1 µM
TGI [7]: 18 µM
GI50 [8]: 3.1 µM
TGI [8]: 11.9 µM
GI50 [9]: 15.6 µM
TGI [9]: 38.1 µM
GI50 [10]: 1.37 µM
TGI [10]: 2.85 µM
GI50 [11]: 2.19 µM
TGI [11]: 6.45 µM
GI50 [12]: 2.94 µM
TGI [12]: 7.79 µM
GI50 [13]: 12 µM
TGI [13]: 29.2 µM
GI50 [14]: 12.4 µM
TGI [14]: 48.4 µM
GI50 [15]: 2.92 µM
TGI [15]: 24.7 µM
GI50 [16]: 1.87 µM
TGI [16]: 5.87 µM
GI50 [17]: 1.82 µM
TGI [17]: 4.46 µM
GI50 [18]: 2.36 µM
TGI [18]: > 100 µM
GI50 [19]: 2.73 µM
TGI [19]: 7.54 µM
GI50 [20]: 1.66 µM
TGI [20]: 3.45 µM
GI50 [21]: 1.82 µM
TGI [21]: 4.18 µM
GI50 [22]: 22.6 µM
TGI [22]: 43.5 µM
GI50 [23]: 3.05 µM
TGI [23]: 15.9 µM
GI50 [24]: 3.73 µM
TGI [24]: 13.1 µM
GI50 [25]: 2.46 µM
TGI [25]: 9.38 µM
GI50 [26]: 4.1 µM
TGI [26]: 38 µM
GI50 [27]: 22.9 µM
TGI [27]: 88.8 µM
GI50 [28]: 2.24 µM
TGI [28]: 6.52 µM
GI50 [29]: 4.99 µM
TGI [29]: 21.2 µM
GI50 [30]: 7.08 µM
TGI [30]: 36.8 µM
GI50 [31]: 3 µM
TGI [31]: 8.73 µM
GI50 [32]: 14 µM
TGI [32]: 27.5 µM
GI50 [33]: 4.51 µM
TGI [33]: 19.3 µM
GI50 [34]: 2.84 µM
TGI [34]: 11.1 µM
GI50 [35]: 3.01 µM
TGI [35]: 8.85 µM
GI50 [36]: 2.06 µM
TGI [36]: 5.28 µM
GI50 [37]: 1.81 µM
TGI [37]: 3.43 µM
GI50 [38]: 5.88 µM
TGI [38]: 20.5 µM
GI50 [39]: 12.2 µM
TGI [39]: 33.9 µM
GI50 [40]: 2.64 µM
TGI [40]: 7.39 µM
GI50 [41]: 3.53 µM
TGI [41]: 13 µM
GI50 [42]: 3.72 µM
TGI [42]: 14.4 µM
GI50 [43]: 13.4 µM
TGI [43]: 26.2 µM
GI50 [44]: 3.06 µM
TGI [44]: 13.2 µM
GI50 [45]: 9.75 µM
TGI [45]: 25.1 µM
GI50 [46]: 10.6 µM
TGI [46]: 29.8 µM
GI50 [47]: 2.38 µM
TGI [47]: 7.99 µM
GI50 [48]: 1.9 µM
TGI [48]: 4.9 µM
GI50 [49]: 7.6 µM
TGI [49]: 38.2 µM
GI50 [50]: 3.55 µM
TGI [50]: 15.7 µM
GI50 [51]: 1.5 µM
TGI [51]: 4.72 µM
GI50 [52]: 0.919 µM
TGI [52]: 3.38 µM
GI50 [53]: 2.62 µM
TGI [53]: 12.3 µM
GI50 [54]: 1.85 µM
TGI [54]: 3.87 µM

S=C(Nc1ccc(Cl)cc1)Nc1ccc(-c2nc3ccccc3s2)cc1
GI50 [1]: 16.3 µM
TGI [1]: 30.2 µM
GI50 [2]: 14.9 µM
TGI [2]: 32.2 µM
GI50 [3]: 15.4 µM
TGI [3]: 45.4 µM
GI50 [4]: 26.3 µM
TGI [4]: 61.5 µM
GI50 [5]: 10.8 µM
TGI [5]: 28 µM
GI50 [6]: 15.6 µM
TGI [6]: 54.8 µM
GI50 [7]: 18.7 µM
TGI [7]: 53.7 µM
GI50 [8]: 13.6 µM
TGI [8]: 30 µM
GI50 [9]: 15.1 µM
TGI [9]: 42.9 µM
GI50 [55]: 14.7 µM
TGI [55]: 27.8 µM
GI50 [10]: 13.5 µM
TGI [10]: 26.3 µM
GI50 [11]: 23.5 µM
TGI [11]: > 100 µM
GI50 [12]: 8.22 µM
TGI [12]: > 100 µM
GI50 [13]: 20.1 µM
TGI [13]: 41 µM
GI50 [14]: 17.2 µM
TGI [14]: 45.5 µM
GI50 [15]: 16.4 µM
TGI [15]: 39.2 µM
GI50 [16]: 17.2 µM
TGI [16]: 39.2 µM
GI50 [17]: 16.8 µM
TGI [17]: 37.9 µM
GI50 [18]: 7.28 µM
TGI [18]: 47.2 µM
GI50 [19]: 15 µM
TGI [19]: 49.1 µM
GI50 [20]: 24.3 µM
TGI [20]: > 100 µM
GI50 [21]: 14.3 µM
TGI [21]: 28 µM
GI50 [22]: 15.6 µM
TGI [22]: 46.4 µM
GI50 [24]: 15.3 µM
TGI [24]: 34.3 µM
GI50 [25]: 13.4 µM
TGI [25]: 29.8 µM
TGI [26]: > 100 µM
GI50 [27]: 17.9 µM
TGI [27]: 47.4 µM
GI50 [28]: 14.1 µM
TGI [28]: 27.3 µM
GI50 [29]: 13.9 µM
TGI [29]: 33.4 µM
GI50 [56]: 5.61 µM
TGI [56]: 19.6 µM
GI50 [30]: 17.5 µM
TGI [30]: 36.6 µM
GI50 [31]: 9.93 µM
TGI [31]: 34.1 µM
GI50 [32]: 14.4 µM
TGI [32]: 69.4 µM
GI50 [33]: 20.8 µM
TGI [33]: 44 µM
GI50 [34]: 17.9 µM
TGI [34]: 41.7 µM
GI50 [35]: 14.3 µM
TGI [35]: 54.9 µM
GI50 [36]: 20.9 µM
TGI [36]: 64.5 µM
GI50 [37]: 16.6 µM
TGI [37]: 37.1 µM
GI50 [38]: 13.8 µM
TGI [38]: 32 µM
GI50 [39]: 16.1 µM
TGI [39]: 40.6 µM
GI50 [57]: 17.5 µM
TGI [57]: 34 µM
GI50 [40]: 21 µM
TGI [40]: 40.2 µM
GI50 [41]: 19.1 µM
TGI [41]: 44.2 µM
GI50 [42]: 11 µM
TGI [42]: 22.9 µM
GI50 [43]: 24.9 µM
TGI [43]: 63.1 µM
GI50 [44]: 15.4 µM
TGI [44]: 35 µM
GI50 [45]: 19 µM
TGI [45]: 69.6 µM
GI50 [46]: 13.8 µM
TGI [46]: 35.5 µM
GI50 [47]: 4.47 µM
TGI [47]: 27.4 µM
GI50 [48]: 17.9 µM
TGI [48]: 35.4 µM
GI50 [49]: 5.19 µM
TGI [49]: 38.9 µM
GI50 [50]: 15.1 µM
TGI [50]: 44.5 µM
GI50 [51]: 19 µM
TGI [51]: > 100 µM
GI50 [52]: 20.3 µM
TGI [52]: 44.9 µM
GI50 [53]: 10.4 µM
TGI [53]: 24.8 µM
GI50 [54]: 11.8 µM
TGI [54]: 25.2 µM
